Laboratory results from PMC10636063, “Progesterone activation of β1-containing BK channels involves two binding sites” (Nature Communications, 2023).

Molecular target: T1, β1Y42V (Rattus norvegicus, UniProt P97678, Y42V)
T1 construct: FLAG (DYKDDDDK); made in house; host or cells: CHO cells, transient transfection, anti-flag immunoprecipitation
Experiment: Thermal unfolding (MST) of β1Y42V
Type: binding
From the text: BK channel-forming slo1 cDNA (cbv1 isoform; AY330293) was cloned from rat cerebral artery SM cells, and inserted into pcDNA3.1 vector as described. BK β1 cDNA (KCNMB1 product; NP_011452; FJ154955) were isolated from rat cerebral artery SM cells and cloned as described. β4 cDNA (KCNMB4; NP_055320; AY028605) were generously provided by Dr. Ligia Toro. CHO cells were transiently transfected with cbv1 ± β1-, or β4-carrying pcDNA3.1 using X-tremeGENE HP (Sigma-Aldrich). Mutations to β1/4 cDNAs were conducted by Genscript, with sequences being confirmed to be >99% identical to KCNMB1 product; NP_011452 or β4 KCNMB4; NP_055320; respectively. β1/4 and mutant constructs were flag-tagged (DYKDDDDK-tag) by Genscript services for subsequent immunoprecipitation and use in microscale thermophoresis studies.
Wt β1, wt β4 and mutant constructs were purified by immunoprecipitation using Dynabeads Protein G Kit (10007D by Invitrogen) and following the manufacturer’s instructions. […] The unfolding profile of a protein is a plot of its fluorescence signal against temperature. […] During the heating process, fluorescence is recorded at 330 and 350 nm. The resulting fluorescence ratio change is then analyzed for onset and inflection points. The temperature of onset and inflection is determined using built-in analysis function in Nanotemper PR.therm-control software. […]

T1 sequence (P97678 whole entry Y42V): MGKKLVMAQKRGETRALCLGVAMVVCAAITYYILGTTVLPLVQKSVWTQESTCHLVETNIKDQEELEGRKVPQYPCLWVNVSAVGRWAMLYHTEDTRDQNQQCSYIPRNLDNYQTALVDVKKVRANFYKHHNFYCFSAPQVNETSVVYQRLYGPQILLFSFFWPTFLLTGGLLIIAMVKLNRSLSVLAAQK

CC(=O)[C@H]1CC[C@H]2[C@@H]3CCC4=CC(=O)CC[C@]4(C)[C@H]3CC[C@]12C [PROG, Progesterone]
binding: still bind PROG
